Results published in ChEMBL document CHEMBL1201862, “PubChem BioAssay data set” (2004).
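Test compounds were applied to cells in 96-well plates for 48 hours at 5 doses. GI50 is the concentration that inhibits growth by half.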 Active and inactive are the calls of the source. No stated cut-off is given here; in the data, active = GI50 up to about 1.1 µM and inactive = higher.

What was measured:
Assay in all cases: growth of human tumour cells (NCI), 48 h
M14 = tested on: M14
SK-OV-3 = tested on: SK-OV-3
DU-145 = tested on: DU-145
K562 = tested on: K562
MCF7 = tested on: MCF7
KM12 = tested on: KM12
SK-MEL-2 = tested on: SK-MEL-2
Hs-578T = tested on: Hs-578T
SF-268 = tested on: SF-268
CAKI-1 = tested on: CAKI-1
BT-549 = tested on: BT-549
PC-3 = tested on: PC-3
HOP-92 = tested on: HOP-92
COLO 205 = tested on: COLO 205
U-251 = tested on: U-251
SF-539 = tested on: SF-539
SK-MEL-5 = tested on: SK-MEL-5
ACHN = tested on: ACHN
HL-60 = tested on: HL-60

Measured: GI50

Cc1csc(N/C=C2\C(=O)Oc3ccccc3C2=O)n1
inactive: M14 35.8 µM | SK-OV-3 7.05 µM | DU-145 29 µM | K562 81.7 µM | MCF7 25.9 µM | KM12 40 µM | SK-MEL-2 13.4 µM | Hs-578T 20.1 µM | SF-268 26.5 µM | CAKI-1 19.8 µM | BT-549 25.6 µM | PC-3 30.2 µM | HOP-92 17.9 µM | COLO 205 35 µM | U-251 26.2 µM | SF-539 26.9 µM | SK-MEL-5 23.9 µM | ACHN 9.02 µM

COC(=O)/C=C/[C@@H]1[C@H](C)N1S(=O)(=O)c1ccc(C)cc1 (stereo partly specified)
inactive: M14 > 100 µM | SK-OV-3 > 100 µM | DU-145 > 100 µM | K562 > 100 µM | MCF7 > 100 µM | SK-MEL-2 29.7 µM | Hs-578T > 100 µM | SF-268 > 100 µM | CAKI-1 > 100 µM | BT-549 > 100 µM | PC-3 > 100 µM | HL-60 > 100 µM | COLO 205 > 100 µM | U-251 > 100 µM | SF-539 > 100 µM | SK-MEL-5 > 100 µM | ACHN > 100 µM

CNC(=O)OC(C)CN1c2ccccc2Sc2ccccc21 (stereo unspecified)
inactive: M14 64.9 µM | SK-OV-3 > 100 µM | DU-145 > 100 µM | K562 63.7 µM | MCF7 > 100 µM | KM12 > 100 µM | Hs-578T > 100 µM | SF-268 > 100 µM | CAKI-1 > 100 µM | BT-549 > 100 µM | PC-3 8.63 µM | HL-60 7.69 µM | HOP-92 76.9 µM | COLO 205 41.2 µM | U-251 > 100 µM | SF-539 64.3 µM | SK-MEL-5 59.8 µM | ACHN 83.8 µM

OC(COC(c1ccccc1)(c1ccccc1)c1ccccc1)C(O)CC1SCCS1 (stereo unspecified)
inactive: M14 29.6 µM | SK-OV-3 19 µM | DU-145 17.9 µM | K562 13.5 µM | MCF7 21.3 µM | KM12 13 µM | SK-MEL-2 11.5 µM | Hs-578T 12.2 µM | SF-268 25.4 µM | CAKI-1 21.3 µM | BT-549 20 µM | PC-3 11.8 µM | HL-60 13.9 µM | COLO 205 14.7 µM | U-251 21.8 µM | SF-539 18.7 µM | SK-MEL-5 16.7 µM | ACHN 18.6 µM

CCOC(=O)C1(C#N)CC1
inactive: M14 > 100 µM | SK-OV-3 > 100 µM | DU-145 > 100 µM | K562 > 100 µM | MCF7 > 100 µM | KM12 > 100 µM | SK-MEL-2 > 100 µM | Hs-578T > 100 µM | SF-268 > 100 µM | CAKI-1 > 100 µM | BT-549 > 100 µM | PC-3 > 100 µM | HL-60 > 100 µM | COLO 205 > 100 µM | U-251 > 100 µM | SF-539 > 100 µM | SK-MEL-5 > 100 µM | ACHN > 100 µM

O=c1[nH][nH]c(=O)n1CCCCCCn1c(=O)[nH][nH]c1=O
inactive: M14 > 100 µM | SK-OV-3 > 100 µM | DU-145 > 100 µM | K562 > 100 µM | MCF7 > 100 µM | KM12 > 100 µM | SK-MEL-2 > 100 µM | Hs-578T > 100 µM | SF-268 > 100 µM | CAKI-1 > 100 µM | BT-549 > 100 µM | PC-3 > 100 µM | HL-60 > 100 µM | COLO 205 > 100 µM | U-251 > 100 µM | SF-539 > 100 µM | SK-MEL-5 > 100 µM

O=c1c2c3c(sc2nc2n1N=CN(c1ccccc1)C2)CCCC3
inactive: M14 > 100 µM | SK-OV-3 > 100 µM | DU-145 > 100 µM | K562 > 100 µM | MCF7 > 100 µM | KM12 > 100 µM | SK-MEL-2 > 100 µM | Hs-578T > 100 µM | SF-268 > 100 µM | CAKI-1 > 100 µM | BT-549 > 100 µM | PC-3 > 100 µM | HOP-92 > 100 µM | COLO 205 > 100 µM | U-251 > 100 µM | SK-MEL-5 > 100 µM | ACHN > 100 µM

O=[N+]([O-])c1ccc([I+]c2ccccc2)cc1
inactive: M14 4.29 µM | SK-OV-3 2.07 µM | DU-145 8.93 µM | K562 4.19 µM | MCF7 4.97 µM | KM12 5.04 µM | Hs-578T 3.85 µM | SF-268 6.61 µM | CAKI-1 3.95 µM | BT-549 2.8 µM | PC-3 5.52 µM | HL-60 5.4 µM | HOP-92 9.79 µM | COLO 205 3.11 µM | U-251 5.46 µM | SF-539 7.11 µM | SK-MEL-5 8.04 µM | ACHN 6.43 µM
